# From ChEMBL document CHEMBL4017480, “Discovery and optimization of selective FGFR4 inhibitors via scaffold hopping” (Bioorg Med Chem Lett, 2017)
# Columns and labels:
# [1] = target: Fibroblast growth factor receptor 1 (Homo sapiens, UniProt P11362); test: Inhibition of recombinant human His-tagged FGFR1 cytoplasmic domain (308 to 731 residues) expressed in baculovirus expression system using tyr 04 as substrate measured within 60 mins by Z-LYTE assay
# [2] = target: Fibroblast growth factor receptor 4 (Homo sapiens, UniProt P22455); test: Inhibition of recombinant human N-terminal His-tagged FGFR4 cytoplasmic domain […] expressed in baculovirus expression system using tyr 04 peptide as substrate measured within 90 mins by Z-LYTE assay
# [3] = Intrinsic clearance in mouse liver microsomes at 1 uM measured after 60 mins in presence of NADPH by LC-MS/MS analysis; type: ADME, microsome; details: read-out: CLH
# [4] = Intrinsic clearance in human liver microsomes at 1 uM measured after 60 mins in presence of NADPH by LC-MS/MS analysis; type: ADME, microsome; details: read-out: CLH
# [5] = Stability in human plasma assessed as compound remaining at 2 uM measured after 2 hrs by LC-MS/MS analysis; type: ADME, cell-free; details: read-out: Stability
# [6] = Stability in mouse plasma assessed as compound remaining at 2 uM measured after 2 hrs by LC-MS/MS analysis; type: ADME, cell-free; details: read-out: Stability
# Chain of Fibroblast growth factor receptor 1 (P11362 whole entry, the tested form may be a part): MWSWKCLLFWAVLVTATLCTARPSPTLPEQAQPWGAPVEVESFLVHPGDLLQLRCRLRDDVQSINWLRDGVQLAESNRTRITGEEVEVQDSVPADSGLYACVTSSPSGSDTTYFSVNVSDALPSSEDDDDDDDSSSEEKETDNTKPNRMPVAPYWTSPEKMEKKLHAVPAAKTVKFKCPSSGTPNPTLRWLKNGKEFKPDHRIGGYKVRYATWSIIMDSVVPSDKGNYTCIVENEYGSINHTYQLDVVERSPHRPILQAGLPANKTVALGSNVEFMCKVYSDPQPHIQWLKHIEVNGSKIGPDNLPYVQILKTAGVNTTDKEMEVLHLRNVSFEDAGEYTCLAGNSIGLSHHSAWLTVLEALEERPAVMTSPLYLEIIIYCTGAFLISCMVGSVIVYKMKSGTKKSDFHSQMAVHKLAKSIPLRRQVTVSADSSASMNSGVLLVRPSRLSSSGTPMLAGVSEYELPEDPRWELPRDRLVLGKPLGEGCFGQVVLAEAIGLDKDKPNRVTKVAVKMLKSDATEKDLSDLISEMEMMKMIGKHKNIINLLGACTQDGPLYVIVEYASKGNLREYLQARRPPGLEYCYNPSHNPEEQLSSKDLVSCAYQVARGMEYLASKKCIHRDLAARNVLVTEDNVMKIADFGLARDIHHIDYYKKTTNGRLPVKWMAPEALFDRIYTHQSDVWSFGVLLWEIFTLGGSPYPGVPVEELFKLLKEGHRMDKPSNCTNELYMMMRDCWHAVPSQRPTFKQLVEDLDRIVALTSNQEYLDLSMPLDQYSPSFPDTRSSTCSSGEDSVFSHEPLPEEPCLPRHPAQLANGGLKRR
# Chain of Fibroblast growth factor receptor 4 (P22455 whole entry, the tested form may be a part): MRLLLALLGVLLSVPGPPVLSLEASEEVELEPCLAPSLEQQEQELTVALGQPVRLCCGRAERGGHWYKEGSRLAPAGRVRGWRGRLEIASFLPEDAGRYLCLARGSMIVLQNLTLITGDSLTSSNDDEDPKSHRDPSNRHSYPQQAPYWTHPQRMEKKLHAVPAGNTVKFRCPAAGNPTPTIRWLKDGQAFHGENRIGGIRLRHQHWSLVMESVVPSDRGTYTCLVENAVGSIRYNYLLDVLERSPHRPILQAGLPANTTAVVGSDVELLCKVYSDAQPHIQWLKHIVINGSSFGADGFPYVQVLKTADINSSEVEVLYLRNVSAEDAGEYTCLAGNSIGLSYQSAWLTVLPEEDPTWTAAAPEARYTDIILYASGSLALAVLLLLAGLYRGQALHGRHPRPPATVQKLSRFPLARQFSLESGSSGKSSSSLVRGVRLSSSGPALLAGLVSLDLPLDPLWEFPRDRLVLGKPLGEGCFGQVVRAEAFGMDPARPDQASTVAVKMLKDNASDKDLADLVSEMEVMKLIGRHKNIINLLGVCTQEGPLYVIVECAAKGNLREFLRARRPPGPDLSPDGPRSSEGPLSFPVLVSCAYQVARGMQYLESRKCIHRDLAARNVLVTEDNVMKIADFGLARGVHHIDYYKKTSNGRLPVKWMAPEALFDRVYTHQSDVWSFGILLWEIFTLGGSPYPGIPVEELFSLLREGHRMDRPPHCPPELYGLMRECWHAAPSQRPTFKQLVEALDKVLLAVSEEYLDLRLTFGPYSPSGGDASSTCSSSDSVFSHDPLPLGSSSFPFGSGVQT
structure (smiles),measurement,setting,value
C=CC(=O)Nc1ccccc1Nc1ncc(OCc2c(F)c(OC)cc(OC)c2F)cn1,IC50,[1],0.06 µM
C=CC(=O)Nc1cccc(C)c1Nc1ncc(OC(C)c2c(Cl)c(OC)cc(OC)c2Cl)cn1 (configuration not stated),IC50,[1],> 10 µM
same,IC50,[2],> 10 µM
C=CC(=O)N[C@H]1CCCC[C@H]1Nc1ncc(OCc2c(F)c(OC)cc(OC)c2F)cn1 (racemic),CLint scaled at 1 µM,[3],2030 mL/min/kg
same,CLint scaled at 1 µM,[4],154 mL/min/kg
same,"remaining at 2 h, 2 µM",[5],96%
same,IC50,[1],3.3 µM
same,"remaining at 2 h, 2 µM",[6],96%
C=CC(=O)N[C@H]1CCOC[C@H]1Nc1ncc(OCc2c(F)c(OC)cc(OC)c2F)cn1,CLint scaled at 1 µM,[3],564 mL/min/kg
same,CLint scaled at 1 µM,[4],46 mL/min/kg
same,"remaining at 2 h, 2 µM",[5],90%
same,IC50,[1],> 10 µM
same,"remaining at 2 h, 2 µM",[6],100%
C=CC(=O)Nc1cc(N2CCN(C(C)=O)CC2)cc(C)c1Nc1ncc(OCc2c(F)c(OC)cc(OC)c2F)cn1,CLint scaled at 1 µM,[3],220 mL/min/kg
same,CLint scaled at 1 µM,[4],265 mL/min/kg
same,IC50,[1],9.5 µM
same,"remaining at 2 h, 2 µM",[6],0.3%
C=CC(=O)Nc1cccc(C)c1Nc1ncc(OCc2cc(OC)cc(OC)c2)cn1,IC50,[1],> 10 µM
C=CC(=O)Nc1cc(N2CCN(CC)CC2)cc(C)c1Nc1ncc(OCc2c(F)c(OC)cc(OC)c2F)cn1,CLint scaled at 1 µM,[3],180 mL/min/kg
same,CLint scaled at 1 µM,[4],120 mL/min/kg
same,IC50,[1],2.9 µM
same,"remaining at 2 h, 2 µM",[6],0.1%
C=C(C)C(=O)Nc1cc(N2CCN(CC)CC2)cc(C)c1Nc1ncc(OCc2c(F)c(OC)cc(OC)c2F)cn1,IC50,[1],4.8 µM
same,"remaining at 2 h, 2 µM",[6],0.4%
C=CC(=O)N[C@@H]1COC[C@@H]1Nc1ncc(OCc2c(F)c(OC)cc(OC)c2F)cn1,IC50,[1],7.4 µM
same,IC50,[2],3.5 µM
C=CC(=O)Nc1cccc(C)c1Nc1ncc(OCc2c(Cl)c(OC)cc(OC)c2Cl)cn1,"remaining at 2 h, 2 µM",[6],0.2%
